# Source: the supplement of paper PMC13380429
# Assays:
# Details in all cases: 72 h
# U2OS [1] = experiment: drug sensitivity score (DSS) for viability; higher = more toxic; extreme values may be limits of the assay
# HepG2 [2] = experiment: as above
# Caco-2 [3] = experiment: as above
# Vero E6 [4] = experiment: as above
# Calu-3 [5] = experiment: as above
# U2OS [6] = experiment: cell viability relative to DMSO; higher = less toxic
# HepG2 [7] = experiment: as above
# Caco-2 [8] = experiment: as above
# Vero E6 [9] = experiment: as above
# Calu-3 [10] = experiment: as above
# U2OS [11] = experiment: relative viability EC50 (midpoint between 100% and the lowest measured viability); higher = less toxic
# HepG2 [12] = experiment: as above
# Caco-2 [13] = experiment: as above
# Vero E6 [14] = experiment: as above
# Calu-3 [15] = experiment: as above
SMILES,drug sensitivity score (U2OS [1]),drug sensitivity score (HepG2 [2]),drug sensitivity score (Caco-2 [3]),drug sensitivity score (Vero E6 [4]),drug sensitivity score (Calu-3 [5]),cell viability (U2OS [6]; 1 nM),cell viability (U2OS [6]; 10 nM),cell viability (U2OS [6]; 100 nM),cell viability (U2OS [6]; 1000 nM),cell viability (U2OS [6]; 10000 nM),cell viability (HepG2 [7]; 1 nM),cell viability (HepG2 [7]; 10 nM),cell viability (HepG2 [7]; 100 nM),cell viability (HepG2 [7]; 1000 nM),cell viability (HepG2 [7]; 10000 nM),cell viability (Caco-2 [8]; 1 nM),cell viability (Caco-2 [8]; 10 nM),cell viability (Caco-2 [8]; 100 nM),cell viability (Caco-2 [8]; 1000 nM),cell viability (Caco-2 [8]; 10000 nM),cell viability (Vero E6 [9]; 1 nM),cell viability (Vero E6 [9]; 10 nM),cell viability (Vero E6 [9]; 100 nM),cell viability (Vero E6 [9]; 1000 nM),cell viability (Vero E6 [9]; 10000 nM),cell viability (Calu-3 [10]; 1 nM),cell viability (Calu-3 [10]; 10 nM),cell viability (Calu-3 [10]; 100 nM),cell viability (Calu-3 [10]; 1000 nM),cell viability (Calu-3 [10]; 10000 nM),relative viability EC50 (U2OS [11]),relative viability EC50 (HepG2 [12]),relative viability EC50 (Caco-2 [13]),relative viability EC50 (Vero E6 [14]),relative viability EC50 (Calu-3 [15])
Fc1ccc(-c2cncc(CN3CCN(c4cccc5c4OCCO5)CC3)c2)cc1 [adoprazine],0,0,0,0,0,98.2%,99.7%,92.1%,104%,95.4%,104%,90.6%,92.8%,106%,91.7%,91%,102%,98.5%,109%,100%,103%,98.6%,93.9%,98.8%,105%,102%,105%,93.8%,94.2%,104%,> 10 µM,> 10 µM,> 10 µM,> 10 µM,> 10 µM
COc1cccc2c1C(=O)c1c(O)c3c(c(O)c1C2=O)C[C@@](O)(/C(CO)=N/NC(=O)CCCCCN1C(=O)C=CC1=O)C[C@@H]3O[C@H]1C[C@H](N)[C@H](O)[C@H](C)O1 [aldoxorubicin],14.2,21.6,11.7,5.8,13.2,102%,98.4%,94.8%,28.5%,6%,97.4%,94%,50.3%,20.3%,5.8%,104%,102%,93.2%,41.4%,30.9%,105%,101%,103%,82%,41.9%,93.4%,98.1%,75.7%,45.1%,28%,0.513 µM,0.102 µM,0.367 µM,1.38 µM,0.233 µM
Cc1c(N)c(=O)n(-c2ccccc2)n1C [ampyrone],0,0,0,0,0,97.6%,94.3%,100%,95.8%,102%,96.5%,110%,105%,111%,106%,103%,92%,100%,96.7%,95%,101%,104%,99.2%,95.4%,90.5%,138%,99.9%,98.6%,96.4%,98.6%,> 10 µM,> 10 µM,> 10 µM,> 10 µM,> 10 µM
CCCC(CCC)C(=O)O[C@H]1C[C@H]2CC[C@@H](C1)[N+]2(C)C [anisotropine],0,0,0,0,0,101%,99%,90.3%,99.9%,90.7%,102%,96.9%,99%,90.2%,102%,94.8%,95.2%,86.6%,97.8%,99.1%,100%,96.1%,97.8%,96.6%,100%,94.7%,107%,93.9%,97.6%,92%,> 10 µM,> 10 µM,> 10 µM,> 10 µM,> 10 µM
N#CC1(c2ccc(NC(=O)c3cccnc3NCc3ccncc3)cc2)CCCC1 [apatinib],0,1.9,0,0,0,97.4%,104%,98%,99.2%,99.6%,103%,105%,107%,89.5%,77.8%,92.3%,94.1%,93.5%,101%,94.1%,96.5%,92%,98.3%,97.1%,109%,92.9%,94.5%,104%,97.5%,104%,> 10 µM,> 10 µM,> 10 µM,> 10 µM,> 10 µM
CC[C@@H]1/C=C(\C)C[C@H](C)C[C@H](OC)[C@H]2O[C@@](O)(C(=O)C(=O)N3CCCC[C@H]3C(=O)O[C@H](/C(C)=C/[C@@H]3CC[C@@H](O)[C@H](OC)C3)[C@H](C)[C@@H](O)CC1=O)[C@H](C)C[C@@H]2OC [ascomycin],0,0,0.2,0,0,96%,104%,97.8%,98.4%,95.2%,124%,109%,112%,96%,104%,117%,97.8%,95%,100%,84.5%,107%,100%,98.1%,93.5%,102%,98.3%,98.9%,90.8%,107%,107%,> 10 µM,> 10 µM,> 10 µM,> 10 µM,> 10 µM
CCCCCCCCCCCCCCCCCCN(CCCCCCCCCCCCCCCCCC)CCCN(CCO)CCO [avridine],0,0,0,0,0,95.7%,101%,98.9%,104%,100%,109%,98.1%,98%,106%,108%,106%,97%,90.4%,105%,146%,104%,101%,106%,98.5%,102%,91.5%,101%,101%,95.7%,108%,> 10 µM,> 10 µM,> 10 µM,> 10 µM,> 10 µM
CCC1(C)CC(=O)NC(=O)C1 [bemegride],0,0,0,0,0,100%,96.6%,98.6%,99.8%,102%,102%,101%,108%,90.8%,112%,102%,90.1%,90.8%,94.8%,98.8%,98.2%,102%,94.6%,99.1%,112%,92.2%,114%,101%,105%,98.1%,> 10 µM,> 10 µM,> 10 µM,> 10 µM,> 10 µM
O=C(O)Cc1ccc(OCc2ccccc2)c(Cl)c1 [benzofenac],0,0,0,0,0,98.2%,98.2%,99.3%,100%,94.4%,98.5%,92.7%,94.3%,87.1%,93.8%,96.9%,114%,112%,104%,107%,103%,105%,106%,99.6%,96.1%,97.6%,109%,98.9%,111%,93.4%,> 10 µM,> 10 µM,> 10 µM,> 10 µM,> 10 µM
O=C(OOC(=O)c1ccccc1)c1ccccc1 [benzoyl-peroxide],0,0,0,0,0,98%,95.2%,99.3%,97.6%,94.1%,92.1%,104%,99.1%,110%,107%,102%,87.9%,96.6%,91.2%,99.4%,95.6%,98.8%,92%,95%,105%,99%,95.8%,103%,99%,103%,> 10 µM,> 10 µM,> 10 µM,> 10 µM,> 10 µM
CCCCCCCCCCCCCCCC[N+](C)(C)Cc1ccccc1 [benzyldimethylhexadecylammonium],4.6,4.8,6.3,0,3,99.6%,101%,102%,102%,14.1%,113%,101%,102%,93.7%,30.6%,93.9%,96.1%,91.9%,89.4%,18%,99%,94.6%,100%,94.5%,92.8%,94.9%,105%,105%,102%,41.2%,3.28 µM,2.41 µM,2.12 µM,> 10 µM,3.39 µM
CN(C)CCC(c1ccc(Br)cc1)c1ccccn1 (stereo not given) [brompheniramine],0,0,0,0,0,106%,101%,102%,97.6%,102%,99.3%,98.5%,96.4%,93.7%,88.1%,92.3%,75.3%,96.6%,101%,96.2%,98.8%,102%,100%,105%,94.9%,94.9%,99.5%,96.6%,94.5%,88.9%,> 10 µM,> 10 µM,> 10 µM,> 10 µM,> 10 µM
O=C(O)C1(C(=O)O)CCC1.[NH2-].[NH2-].[Pt+2] [carboplatin],0,0,0,0,0,94.3%,95.9%,93.2%,100%,108%,106%,98.7%,99.5%,90.7%,103%,97.8%,102%,85.4%,94.9%,100%,99.6%,92.5%,103%,98.4%,109%,90.8%,98.8%,93.6%,90.7%,106%,> 10 µM,> 10 µM,> 10 µM,> 10 µM,> 10 µM
CCC(C)(Oc1ccc(C2(c3ccc(OC(C)(CC)C(=O)O)cc3)CCCCC2)cc1)C(=O)O (stereo not given) [clinofibrate],0,0,0,0,0,96.9%,98.3%,102%,95.6%,94.9%,93.9%,106%,92.6%,120%,108%,103%,98.2%,99%,105%,104%,96.4%,101%,96%,99.2%,107%,96.1%,93.7%,99.9%,102%,98.9%,> 10 µM,> 10 µM,> 10 µM,> 10 µM,> 10 µM
